{
  "source": "paper PMC6980832",
  "about": "“Crystal structures of Triosephosphate Isomerases from Taenia solium and Schistosoma mansoni provide insights for vaccine rationale and drug design against helminth parasites” (PLoS Neglected Tropical Diseases, 2020)",
  "key": {"SmTPI": {"target": "T1, SmTPI (Schistosoma mansoni, UniProt P48501)", "T1 construct": "gene TPI; full length, codon-optimised synthetic gene, E. coli tpi-null strain, modified pET19; extra Gly-Pro-His before Met1; homodimer about 50 kDa", "T1 sequence (P48501 whole entry)": "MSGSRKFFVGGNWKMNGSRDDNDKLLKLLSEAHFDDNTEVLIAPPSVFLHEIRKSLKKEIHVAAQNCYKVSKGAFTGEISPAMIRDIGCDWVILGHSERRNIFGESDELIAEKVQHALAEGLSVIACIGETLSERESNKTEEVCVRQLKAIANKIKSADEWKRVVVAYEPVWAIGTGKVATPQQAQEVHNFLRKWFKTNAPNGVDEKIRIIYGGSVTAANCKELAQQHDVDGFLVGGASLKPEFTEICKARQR", "assay": "X-ray crystal structure of the complex", "assay_type": "binding", "conditions": "co-crystallised with 10 mM 2-PGA; active site, closed loop 6; 2.3 Å; bound in all 8 monomers"}, "TsTPI": {"target": "T2, TsTPI (Taenia solium, UniProt Q9GTX8)", "T2 construct": "full length, codon-optimised synthetic gene, E. coli tpi-null strain, modified pET19; extra Gly-Pro-His before Met1; homodimer", "T2 sequence (Q9GTX8 whole entry)": "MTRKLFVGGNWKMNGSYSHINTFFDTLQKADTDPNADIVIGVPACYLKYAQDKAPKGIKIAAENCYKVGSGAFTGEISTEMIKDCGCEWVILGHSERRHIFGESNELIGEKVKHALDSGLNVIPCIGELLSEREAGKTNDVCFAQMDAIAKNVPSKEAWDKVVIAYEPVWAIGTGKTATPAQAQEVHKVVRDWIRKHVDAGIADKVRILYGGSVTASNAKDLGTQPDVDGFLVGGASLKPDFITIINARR", "assay": "X-ray crystal structure of the complex", "assay_type": "binding", "conditions": "co-crystallised with 10 mM 2-PGA; active site, closed loop 6; 2.1 Å"}},
  "data": [
    {"smiles": "O=C(O)[C@@H](CO)OP(=O)(O)O", "note": "[2-PGA, 2-phosphoglyceric acid]", "values": [
      {"measurement": "X-ray crystal structure of the complex", "setting": "SmTPI", "result": "We solved the crystal structures of TsTPI and SmTPI in complex with the inhibitor 2-PGA"},
      {"measurement": "X-ray crystal structure of the complex", "setting": "TsTPI", "result": "We solved the crystal structures of TsTPI and SmTPI in complex with the inhibitor 2-PGA"}
    ]}
  ]
}
